Reference: ChEMBL document CHEMBL5331122, “Structure-Activity Relationship Study of Antimicrobial Peptide PE2 Delivered Novel Linear Derivatives with Potential of Eradicating Biofilms and Low Incidence of Drug Resistance” (J Med Chem, 2023)
≈ marks a conversion by molar mass, not a printed value. Where a SMILES comes first, the peptide text is derived from it. [ ]: non-standard residue; d: D form. The star is where a group is joined. Dab = NCC[C@H](N)C(=O)O; Hexanoyl = CCCCCC(=O)*

How the values were obtained:
Bacillus subtilis = test: Antibacterial activity against Bacillus subtilis ATCC 23857 assessed as bacterial growth inhibition incubated for 18 hrs by broth microdilution method; format: functional
Pseudomonas aeruginosa = test: Antibacterial activity against Pseudomonas aeruginosa ATCC 27853 assessed as bacterial growth inhibition incubated for 18 hrs by broth microdilution method; format: functional
Escherichia coli = test: Antibacterial activity against Escherichia coli ATCC 25922 assessed as bacterial growth inhibition incubated for 18 hrs by broth microdilution method; format: functional
Klebsiella pneumoniae = test: Antibacterial activity against Klebsiella pneumoniae ATCC 700603 assessed as bacterial growth inhibition incubated for 18 hrs by broth microdilution method; format: functional
Staphylococcus aureus = test: Antibacterial activity against Staphylococcus aureus ATCC 25923 assessed as bacterial growth inhibition incubated for 18 hrs by broth microdilution method; format: functional
Enterococcus faecalis = test: Antibacterial activity against Enterococcus faecalis ATCC 29212 assessed as bacterial growth inhibition incubated for 18 hrs by broth microdilution method; format: functional
Erythrocyte = test: Hemolytic activity in mouse red blood cell assessed as hemolysis incubated for 1 hr; format: toxicity, cell-based; details: dose 4-256 µg/ml
[1] = Hemolytic activity in mouse red blood cells assessed as hemolysis at 256 microg/ml incubated for 1 hr relative to control; format: toxicity, cell-based, Erythrocyte; details: red blood cells (erythrocytes), at 256 µg/mL, read-out: Activity

SMILES | MIC (Bacillus subtilis) [µg/mL] | MIC (Pseudomonas aeruginosa) [µg/mL] | MIC (Escherichia coli) [µg/mL] | MIC (Klebsiella pneumoniae) [µg/mL] | MIC (Staphylococcus aureus) [µg/mL] | MIC (Enterococcus faecalis) [µg/mL] | HC10 (Erythrocyte) [µg/mL] | hemolysis at 1 h, 256 µg/mL [1] [%]
CN[C@H](CC(C)C)C(=O)N[C@H]1C(=O)N[C@@H](CC(N)=O)C(=O)N[C@H]2C(=O)N[C@H]3C(=O)N[C@H](C(=O)N[C@H](C(=O)O)c4cc(O)cc(O)c4-c4cc3ccc4O)[C@H](O)c3ccc(c(Cl)c3)Oc3cc2cc(c3O[C@@H]2O[C@H](CO)[C@@H](O)[C@H](O)[C@H]2O[C@H]2C[C@](C)(N)[C@H](O)[C@H](C)O2)Oc2ccc(cc2Cl)[C@H]1O [VANCOMYCIN] | < 1 | > 128 | 128 (≈ 88.3 µM) | > 128 | – | – | – | –
CCCCCCCCCCCCC(=O)N[C@@H](CCN)C(=O)N[C@H](C(=O)N[C@@H](CCN)C(=O)N[C@H](Cc1ccccc1)C(=O)N[C@@H](CC(C)C)C(=O)N[C@@H](CCN)C(=O)N[C@@H](C(=O)N[C@@H](CC(C)C)C(=O)N[C@H](C(N)=O)[C@@H](C)O)C(C)C)[C@@H](C)CC | 16 (≈ 13.3 µM) | 16 (≈ 13.3 µM) | 8 (≈ 6.66 µM) | 16 (≈ 13.3 µM) | 32 (≈ 26.7 µM) | 8 (≈ 6.66 µM) | 8 | –
CCCCCC(=O)N[C@H]1CCNC(=O)[C@H]([C@@H](C)O)NC(=O)[C@H](CC(C)C)NC(=O)[C@@H](C(C)C)NC(=O)[C@H](CCN)NC(=O)[C@H](CC(C)C)NC(=O)[C@@H](Cc2ccccc2)NC(=O)[C@H](CCN)NC(=O)[C@H]([C@@H](C)CC)NC1=O | 128 (≈ 118 µM) | > 128 | 32 (≈ 29.5 µM) | 64 (≈ 59 µM) | > 128 | > 128 | 512 | < 5
CCCCCCCCCCCCCC(=O)N[C@@H](CCN)C(=O)N[C@H](C(=O)N[C@@H](CCN)C(=O)N[C@H](Cc1ccccc1)C(=O)N[C@@H](CC(C)C)C(=O)N[C@@H](CCN)C(=O)N[C@@H](C(=O)N[C@@H](CC(C)C)C(=O)N[C@H](C(N)=O)[C@@H](C)O)C(C)C)[C@@H](C)CC | 16 (≈ 13.2 µM) | 32 (≈ 26.3 µM) | 128 (≈ 105 µM) | > 128 | 32 (≈ 26.3 µM) | 16 (≈ 13.2 µM) | 32 | –
NC[C@H]1O[C@H](O[C@H]2[C@H](O)[C@@H](O[C@H]3O[C@H](CO)[C@@H](O)[C@H](N)[C@H]3O)[C@H](N)C[C@@H]2N)[C@H](O)[C@@H](O)[C@@H]1O [KANAMYCIN] | < 1 | > 128 | 4 (≈ 8.26 µM) | 32 (≈ 66 µM) | < 1 | 16 (≈ 33 µM) | – | –
CCCCCC(=O)N[C@@H](CCN)C(=O)N[C@H](C(=O)N[C@@H](CCN)C(=O)N[C@H](Cc1ccccc1)C(=O)N[C@@H](CC(C)C)C(=O)N[C@@H](CCN)C(=O)N[C@@H](C(=O)N[C@@H](CC(C)C)C(=O)N[C@@H](C)C(N)=O)C(C)C)[C@@H](C)CC | 8 (≈ 7.46 µM) | 4 (≈ 3.73 µM) | 32 (≈ 29.8 µM) | 64 (≈ 59.7 µM) | 64 (≈ 59.7 µM) | > 128 | 512 | < 5
CCCCCC(=O)N[C@@H](CCN)C(=O)N[C@H](C(=O)N[C@@H](CCN)C(=O)N[C@H](Cc1ccccc1)C(=O)N[C@@H](CC(C)C)C(=O)N[C@@H](CCN)C(=O)N[C@@H](C(=O)N[C@@H](CC(C)C)C(=O)N[C@@H](CO)C(N)=O)C(C)C)[C@@H](C)CC (Hexanoyl-[Dab]I[Dab][dF]L[Dab][dV]LS-NH2) | 8 (≈ 7.35 µM) | 4 (≈ 3.68 µM) | 32 (≈ 29.4 µM) | 64 (≈ 58.8 µM) | 64 (≈ 58.8 µM) | 128 (≈ 118 µM) | 512 | < 5
CCC[C@H](O)CC(=O)N[C@@H](CCN)C(=O)N[C@H](C(=O)N[C@@H](CCN)C(=O)N[C@H](Cc1ccccc1)C(=O)N[C@@H](CC(C)C)C(=O)N[C@@H](CCN)C(=O)N[C@@H](C(=O)N[C@@H](CC(C)C)C(=O)N[C@H](C(N)=O)[C@@H](C)O)C(C)C)[C@@H](C)CC | 8 (≈ 7.15 µM) | 4 (≈ 3.58 µM) | 32 (≈ 28.6 µM) | 64 (≈ 57.2 µM) | 128 (≈ 114 µM) | > 128 | 512 | < 2
C/C=C(/NC(=O)[C@H](CC(C)C)NC(=O)[C@H](NC(=O)[C@H](CCN)NC(=O)[C@H](CC(C)C)NC(=O)[C@@H](Cc1ccccc1)NC(=O)[C@H](CCN)NC(=O)[C@@H](NC(=O)[C@H](CCN)NC(=O)C[C@@H](O)CCC)[C@@H](C)CC)C(C)C)C(=O)O | 32 (≈ 29.1 µM) | 32 (≈ 29.1 µM) | 64 (≈ 58.1 µM) | 128 (≈ 116 µM) | > 128 | > 128 | 512 | –
CC[C@H](C)[C@H](NC(=O)[C@@H](N)CCN)C(=O)N[C@@H](CCN)C(=O)N[C@H](Cc1ccccc1)C(=O)N[C@@H](CC(C)C)C(=O)N[C@@H](CCN)C(=O)N[C@@H](C(=O)N[C@@H](CC(C)C)C(=O)N[C@H](C(N)=O)[C@@H](C)O)C(C)C | 32 (≈ 31.9 µM) | 32 (≈ 31.9 µM) | 128 (≈ 127 µM) | > 128 | > 128 | > 128 | 512 | –

Further lines, with some results ahead:

MIC (Bacillus subtilis) [µg/mL] | MIC (Pseudomonas aeruginosa) [µg/mL] | MIC (Escherichia coli) [µg/mL] | MIC (Klebsiella pneumoniae) [µg/mL] | MIC (Staphylococcus aureus) [µg/mL] | MIC (Enterococcus faecalis) [µg/mL] | SMILES | HC10 (Erythrocyte) [µg/mL] | hemolysis at 1 h, 256 µg/mL [1] [%]
4 (≈ 3.63 µM) | 4 (≈ 3.63 µM) | 16 (≈ 14.5 µM) | 32 (≈ 29 µM) | 32 (≈ 29 µM) | 128 (≈ 116 µM) | CCCCCC(=O)N[C@@H](CCN)C(=O)N[C@H](C(=O)N[C@@H](CCN)C(=O)N[C@H](Cc1ccccc1)C(=O)N[C@@H](CC(C)C)C(=O)N[C@@H](CCN)C(=O)N[C@@H](C(=O)N[C@@H](CC(C)C)C(=O)N[C@H](C(N)=O)[C@@H](C)O)C(C)C)[C@@H](C)CC | 512 | < 10
4 (≈ 3.37 µM) | 4 (≈ 3.37 µM) | 16 (≈ 13.5 µM) | 32 (≈ 26.9 µM) | 8 (≈ 6.74 µM) | 32 (≈ 26.9 µM) | CCCCCC(=O)N[C@@H](CCN)C(=O)N[C@H](C(=O)N[C@@H](CCN)C(=O)N[C@H](Cc1ccccc1)C(=O)N[C@@H](CC(C)C)C(=O)N[C@@H](CCN)C(=O)N[C@@H](C(=O)N[C@@H](CC(C)C)C(=O)N[C@@H](Cc1c[nH]c2ccccc12)C(N)=O)C(C)C)[C@@H](C)CC | 512 | < 5
4 (≈ 3.45 µM) | 4 (≈ 3.45 µM) | 4 (≈ 3.45 µM) | 4 (≈ 3.45 µM) | 4 (≈ 3.45 µM) | 8 (≈ 6.91 µM) | CCCCCCCCCC(=O)N[C@@H](CCN)C(=O)N[C@H](C(=O)N[C@@H](CCN)C(=O)N[C@H](Cc1ccccc1)C(=O)N[C@@H](CC(C)C)C(=O)N[C@@H](CCN)C(=O)N[C@@H](C(=O)N[C@@H](CC(C)C)C(=O)N[C@H](C(N)=O)[C@@H](C)O)C(C)C)[C@@H](C)CC | 32 | –
4 (≈ 3.48 µM) | 4 (≈ 3.48 µM) | 16 (≈ 13.9 µM) | 32 (≈ 27.9 µM) | 16 (≈ 13.9 µM) | 64 (≈ 55.7 µM) | CCCCCC(=O)N[C@@H](CCN)C(=O)N[C@H](C(=O)N[C@@H](CCN)C(=O)N[C@H](Cc1ccccc1)C(=O)N[C@@H](CC(C)C)C(=O)N[C@@H](CCN)C(=O)N[C@@H](C(=O)N[C@@H](CC(C)C)C(=O)N[C@@H](Cc1ccccc1)C(N)=O)C(C)C)[C@@H](C)CC | 512 | < 5
8 (≈ 6.74 µM) | 8 (≈ 6.74 µM) | 4 (≈ 3.37 µM) | 8 (≈ 6.74 µM) | 16 (≈ 13.5 µM) | 4 (≈ 3.37 µM) | CCCCCCCCCCCC(=O)N[C@@H](CCN)C(=O)N[C@H](C(=O)N[C@@H](CCN)C(=O)N[C@H](Cc1ccccc1)C(=O)N[C@@H](CC(C)C)C(=O)N[C@@H](CCN)C(=O)N[C@@H](C(=O)N[C@@H](CC(C)C)C(=O)N[C@H](C(N)=O)[C@@H](C)O)C(C)C)[C@@H](C)CC | 8 | –
4 (≈ 3.49 µM) | 8 (≈ 6.99 µM) | 4 (≈ 3.49 µM) | 8 (≈ 6.99 µM) | 8 (≈ 6.99 µM) | 8 (≈ 6.99 µM) | CCCCCCCCC(=O)N[C@@H](CCN)C(=O)N[C@H](C(=O)N[C@@H](CCN)C(=O)N[C@H](Cc1ccccc1)C(=O)N[C@@H](CC(C)C)C(=O)N[C@@H](CCN)C(=O)N[C@@H](C(=O)N[C@@H](CC(C)C)C(=O)N[C@H](C(N)=O)[C@@H](C)O)C(C)C)[C@@H](C)CC | 64 | –
4 (≈ 3.54 µM) | 8 (≈ 7.08 µM) | 4 (≈ 3.54 µM) | 8 (≈ 7.08 µM) | 8 (≈ 7.08 µM) | 16 (≈ 14.2 µM) | CCCCCCCC(=O)N[C@@H](CCN)C(=O)N[C@H](C(=O)N[C@@H](CCN)C(=O)N[C@H](Cc1ccccc1)C(=O)N[C@@H](CC(C)C)C(=O)N[C@@H](CCN)C(=O)N[C@@H](C(=O)N[C@@H](CC(C)C)C(=O)N[C@H](C(N)=O)[C@@H](C)O)C(C)C)[C@@H](C)CC | 128 | –
8 (≈ 7.08 µM) | 2 (≈ 1.77 µM) | 64 (≈ 56.7 µM) | 32 (≈ 28.3 µM) | 64 (≈ 56.7 µM) | 128 (≈ 113 µM) | CCCCCC(=O)N[C@@H](CCN)C(=O)N[C@H](C(=O)N[C@@H](CCN)C(=O)N[C@H](Cc1ccccc1)C(=O)N[C@@H](CC(C)C)C(=O)N[C@@H](CCN)C(=O)N[C@@H](C(=O)N[C@@H](CC(C)C)C(=O)N[C@@H](CCCCN)C(N)=O)C(C)C)[C@@H](C)CC | 512 | < 5
4 (≈ 3.58 µM) | 16 (≈ 14.3 µM) | 4 (≈ 3.58 µM) | 8 (≈ 7.17 µM) | 16 (≈ 14.3 µM) | 64 (≈ 57.3 µM) | CCCCCCC(=O)N[C@@H](CCN)C(=O)N[C@H](C(=O)N[C@@H](CCN)C(=O)N[C@H](Cc1ccccc1)C(=O)N[C@@H](CC(C)C)C(=O)N[C@@H](CCN)C(=O)N[C@@H](C(=O)N[C@@H](CC(C)C)C(=O)N[C@H](C(N)=O)[C@@H](C)O)C(C)C)[C@@H](C)CC | 256 | –
2 (≈ 1.71 µM) | 2 (≈ 1.71 µM) | 4 (≈ 3.41 µM) | 2 (≈ 1.71 µM) | 2 (≈ 1.71 µM) | 8 (≈ 6.82 µM) | CCCCCCCCCCC(=O)N[C@@H](CCN)C(=O)N[C@H](C(=O)N[C@@H](CCN)C(=O)N[C@H](Cc1ccccc1)C(=O)N[C@@H](CC(C)C)C(=O)N[C@@H](CCN)C(=O)N[C@@H](C(=O)N[C@@H](CC(C)C)C(=O)N[C@H](C(N)=O)[C@@H](C)O)C(C)C)[C@@H](C)CC | 16 | –
